Where two headings read alike, the source gives them in different places.

Experimental findings from publication PMC6571673, “Cytostatic and Cytotoxic Natural Products against Cancer Cell Models” (Molecules, 2019) are described below.

The subject of data set [1] is BJ. Briefly: CTG viability assay (CellTiter-Glo, 72 h). It counts as cell-based, human. To be noted: for EC50: Homo sapiens, BJ, CellTiter-Glo, 72 h, non-cancerous cells. (In general: Cellular ATP, detected with luciferase, serves as a proxy for viable cell number.)
Data set [2] has as its system SUP-B15. Briefly: ApoTox-Glo triplex assay. In kind it is cell-based, human. Conditions: SUP-B15, 36 h; 9 0.2–100 µM, 10 0.02–10 µM. As to the method: Cells (9.5 × 10^4 cells/well in 75 µL) were dispensed in 96-well black flat bottom (8807BC, Corning) plates. The cells were incubated for 12 h at 37 °C and treated with compounds (25 µL) for 36 h. DMSO was used as a negative control and camptothecan was used as the positive control. Then, the experiment was stopped by adding the Viability/Cytotoxicity Reagent, and briefly mixed by orbital shaking (300–500 rpm for ~30 s). Plates were incubated for 30 min at 37 °C and fluorescence was measured at the wavelength 400Ex/505Em for viability and 485Ex/520Em for cytotoxicity in an Envision plate reader (Perkin Elmer). Finally, the Caspase-Glo® 3/7 Reagent was added, and the plates were mixed by orbital shaking (300–500 rpm for ~30 s), followed by an additional 30 min incubation at RT. Luminescence was recorded with a plate reader (Envision, Perkin Elmer) to capture caspase 3/7 activation and determine apoptosis induction.

For data set [3], the system named is MDA-MB-231. Kind of data set: Propidium iodide (PI) assay, 48 h. In kind it is cell-based, human. Conditions: MDA-MB-231, 48 h.
Description: The first step was to evaluate if the compounds display cytotoxicity against the adherent cells. Propidium iodide (PI) assay was performed for the drug resistant solid tumor cellular models (triple negative breast cancer models: SUM149 and MDA-MB-231) for 48 h (Figure 5) [30, 31].
Data set [4] is described as follows: Metabolic stability in liver microsomes. It counts as in vitro ADME. Conditions: for half-life: read-out: metabolic stability t1/2. The source says:
(§1) To gain further information regarding intracellular compound localization, studies were extended to include a marker for the ER (Figure 8). The staining pattern for the individual probes are shown in Figure 8A (ER), Figure 8B (Lysosome) and Figure 8D (probe 9a). […] Moreover, when all three channels were merged, white specks were observed, indicating co-localization of probe 9a with cellular structures that are stained by both ER and lysosomal marker dyes (Figure 8F). […] These mechanisms provide a plausible explanation for the lower potency of compound 9 compared to compound 10. Finally, in vitro ADME (absorption, distribution, metabolism, and elimination) profiles were evaluated for compounds 9 and 10 to compare with the obtained cellular data (Supplementary Material, Figure S10). The aqueous solubility properties at physiological pH (7.40) of compounds 9 and 10 were good compared to controls. […] The combined findings indicate that the steric-effects of the hydroxysuccinate appendage of compound 10 renders it less prone to degradation by lysosomal activity or other competing cellular removal mechanisms.
On the technique in general: Microsomes from liver hold many membrane-bound enzymes, among them those of drug oxidation.

Data set [5] in a line: Plasma stability assay. It counts as in vitro ADME. Conditions: read-out: plasma stability t1/2.
Description: as §1

A short description of data set [6]: PAMPA assay. In kind it is in vitro ADME.
Description: as §1
Background: In PAMPA a lipid-coated filter parts donor from acceptor wells.

Usually EC50 stands for the midpoint of the concentration-response curve. A high value points to a less potent agent. Regarding `COC1=C[C@]23CCCN2CCc2cc4c(cc2[C@@H]3[C@@H]1O)OCO4` [Compound 9, cephalotaxine], the EC50 in data set [1] is more than 43.3 µM. Moreover, in data set [2], the “caspase 3/7 activity” value is “increased caspase 3/7 activity”, the “cytotoxicity by membrane integrity (bis-AAF-RF110)” value is “little cytotoxic effects” and the “viability (GF-AFC)” value is given as “decreased viability”. The “activity in PI assay” value in data set [3] was “substantial activity”. In addition, in data set [4] (human liver microsomes), the “metabolic stability t1/2” value is listed as “rapidly degraded”. The “metabolic stability t1/2” value in data set [4] (mouse liver microsomes) is “rapidly degraded”. Besides, in data set [5] (human plasma), the half-life was more than 25 h. In data set [5] (mouse plasma), the half-life is more than 25 h. For the same compound, in data set [6] (PAMPA), the PAMPA permeability result is “favorable permeability properties”.
`COC(=O)C[C@](O)(CCCC(C)(C)O)C(=O)O[C@@H]1C(OC)=C[C@]23CCCN2CCc2cc4c(cc2[C@H]13)OCO4` [Compound 10, homoharringtonine, reference compound] displayed an EC50 in data set [1] of more than 43.3 µM. In addition, in data set [1] (at the highest tested concentration (43.3 µM)), the “activity against BJ” value is on record as “no observable activity”. Further, the “caspase 3/7 activity” value in data set [2] was “increased caspase 3/7 activity”. The “cytotoxicity by membrane integrity (bis-AAF-RF110)” value in data set [2] is on record as “little cytotoxic effects”. The “viability (GF-AFC)” value in data set [2] is given as “decreased viability”. Moreover, the “activity in PI assay” value in data set [3] is “substantial activity”. For the same compound, the half-life is not below 1 h in data set [4] (human liver microsomes), not below 1 h in data set [4] (mouse liver microsomes), more than 12 h in data set [5] (human plasma) and less than 1 h in data set [5] (mouse plasma). Besides, the PAMPA permeability result in data set [6] is on record as “favorable permeability properties”.
